ChEMBL document CHEMBL4823305, “Design, synthesis and antibacterial evaluation of novel 3-O-substituted 15-membered azalides possessing 1,2,3-triazole side chains” (2021)
Converted amounts (≈) assume the structure as drawn.

How the values were obtained:
Type in all cases: functional
Staphylococcus aureus [1] = test: Antibacterial activity against methicillin-resistant Staphylococcus aureus ATCC43300 by broth microdilution method
Staphylococcus aureus [2] = test: Bactericidal activity against methicillin-resistant Staphylococcus aureus ATCC43300
[3] = Ratio of MBC for bactericidal activity against methicillin-resistant Staphylococcus aureus ATCC43300 to MIC for antibacterial activity against methicillin-resistant Staphylococcus aureus ATCC43300 by broth microdilution method
Klebsiella pneumoniae = test: Antibacterial activity against Klebsiella pneumoniae ATCC10031 by broth microdilution method
Staphylococcus aureus [4] = test: Antibacterial activity against erythromycin-susceptible Staphylococcus aureus ATCC25923 by broth microdilution method
Staphylococcus aureus [5] = test: Antibacterial activity against penicillin-resistant Staphylococcus aureus by broth microdilution method
Enterococcus faecium = test: Antibacterial activity against clinical isolate erythromycin-resistant Enterococcus faecium by broth microdilution method
Enterococcus faecalis = test: Antibacterial activity against vancomycin-susceptible Enterococcus faecalis ATCC29212 by broth microdilution method
Bacillus subtilis = test: Antibacterial activity against penicillin-susceptible Bacillus subtilis ATCC9372 by broth microdilution method

For `CC[C@H]1OC(=O)[C@H](C)[C@@H](OC(=O)NNC(=O)Cn2cc(-c3ccc(-c4ccccc4)cc3)nn2)[C@H](C)[C@@H](O[C@@H]2O[C@H](C)C[C@H](N(C)C)[C@H]2O)[C@](C)(O)C[C@@H](C)CN(C)[C@H](C)[C@H]2OC(=O)O[C@@]21C`, the MIC (Staphylococcus aureus [1]) was 32 µg/mL (≈ 34.2 µM), the MBC (Staphylococcus aureus [2]) was > 256 µg/mL and the Ratio [3] was >8. The MIC (Klebsiella pneumoniae) was 32 µg/mL (≈ 34.2 µM), the MIC (Staphylococcus aureus [4]) was 16 µg/mL (≈ 17.1 µM) and the MIC (Staphylococcus aureus [5]) was 32 µg/mL (≈ 34.2 µM). It also gave an MIC (Enterococcus faecium) of 16 µg/mL (≈ 17.1 µM), an MIC (Enterococcus faecalis) of 8 µg/mL (≈ 8.55 µM) and an MIC (Bacillus subtilis) of 16 µg/mL (≈ 17.1 µM).
`CC[C@H]1OC(=O)[C@H](C)[C@@H](OC(=O)NNC(=O)Cn2cc(-c3cccc(F)c3)nn2)[C@H](C)[C@@H](O[C@@H]2O[C@H](C)C[C@H](N(C)C)[C@H]2O)[C@](C)(O)C[C@@H](C)CN(C)[C@H](C)[C@H]2OC(=O)O[C@@]21C` showed an MIC (Staphylococcus aureus [1]) of 256 µg/mL (≈ 292 µM), an MIC (Klebsiella pneumoniae) of 64 µg/mL (≈ 72.9 µM) and an MIC (Staphylococcus aureus [4]) of 32 µg/mL (≈ 36.4 µM). The MIC (Staphylococcus aureus [5]) was 256 µg/mL (≈ 292 µM), the MIC (Enterococcus faecium) was 128 µg/mL (≈ 146 µM) and the MIC (Enterococcus faecalis) was 32 µg/mL (≈ 36.4 µM). The MIC (Bacillus subtilis) was 64 µg/mL (≈ 72.9 µM).
For `CCCOc1ccc(-c2cn(CC(=O)NNC(=O)O[C@H]3[C@H](C)[C@@H](O[C@@H]4O[C@H](C)C[C@H](N(C)C)[C@H]4O)[C@](C)(O)C[C@@H](C)CN(C)[C@H](C)[C@H]4OC(=O)O[C@]4(C)[C@@H](CC)OC(=O)[C@@H]3C)nn2)cc1`, the MIC (Staphylococcus aureus [1]) was 64 µg/mL (≈ 69.7 µM), the MIC (Klebsiella pneumoniae) was 32 µg/mL (≈ 34.9 µM) and the MIC (Staphylococcus aureus [4]) was 16 µg/mL (≈ 17.4 µM). It also gave an MIC (Staphylococcus aureus [5]) of 64 µg/mL (≈ 69.7 µM), an MIC (Enterococcus faecium) of 64 µg/mL (≈ 69.7 µM) and an MIC (Enterococcus faecalis) of 16 µg/mL (≈ 17.4 µM). For the same compound, the MIC (Bacillus subtilis) was 32 µg/mL (≈ 34.9 µM).
For `CC[C@H]1OC(=O)[C@H](C)[C@@H](O[C@H]2C[C@@](C)(OC)[C@@H](O)[C@H](C)O2)[C@H](C)[C@@H](O[C@@H]2O[C@H](C)C[C@H](N(C)C)[C@H]2O)[C@](C)(O)C[C@@H](C)CN(C)[C@H](C)[C@@H](O)[C@]1(C)O` [AZITHROMYCIN], the MIC (Staphylococcus aureus [1]) was > 256 µg/mL, the MIC (Klebsiella pneumoniae) was 2 µg/mL (≈ 2.67 µM) and the MIC (Staphylococcus aureus [4]) was < 0.25 µg/mL. For the same compound, the MIC (Staphylococcus aureus [5]) was > 256 µg/mL, the MIC (Enterococcus faecium) was 256 µg/mL (≈ 342 µM) and the MIC (Enterococcus faecalis) was 4 µg/mL (≈ 5.34 µM). For the same compound, the MIC (Bacillus subtilis) was < 0.25 µg/mL.
In the case of `CCCCc1ccc(-c2cn(CC(=O)NNC(=O)O[C@H]3[C@H](C)[C@@H](O[C@@H]4O[C@H](C)C[C@H](N(C)C)[C@H]4O)[C@](C)(O)C[C@@H](C)CN(C)[C@H](C)[C@H]4OC(=O)O[C@]4(C)[C@@H](CC)OC(=O)[C@@H]3C)nn2)cc1`, the MIC (Staphylococcus aureus [1]) is reported as 32 µg/mL (≈ 34.9 µM), the MBC (Staphylococcus aureus [2]) is reported as > 256 µg/mL and the Ratio [3] is reported as >8. For the same compound, the MIC (Klebsiella pneumoniae) was 16 µg/mL (≈ 17.5 µM), the MIC (Staphylococcus aureus [4]) was 8 µg/mL (≈ 8.73 µM) and the MIC (Staphylococcus aureus [5]) was 32 µg/mL (≈ 34.9 µM). It also gave an MIC (Enterococcus faecium) of 16 µg/mL (≈ 17.5 µM), an MIC (Enterococcus faecalis) of 4 µg/mL (≈ 4.37 µM) and an MIC (Bacillus subtilis) of 8 µg/mL (≈ 8.73 µM).
With `CC[C@H]1OC(=O)[C@H](C)[C@@H](OC(=O)NNC(=O)Cn2cc(-c3ccc(Br)cc3)nn2)[C@H](C)[C@@H](O[C@@H]2O[C@H](C)C[C@H](N(C)C)[C@H]2O)[C@](C)(O)C[C@@H](C)CN(C)[C@H](C)[C@H]2OC(=O)O[C@@]21C` the MIC (Staphylococcus aureus [1]) was 64 µg/mL (≈ 68.2 µM), the MIC (Klebsiella pneumoniae) was 64 µg/mL (≈ 68.2 µM) and the MIC (Staphylococcus aureus [4]) was 32 µg/mL (≈ 34.1 µM). For the same compound, the MIC (Staphylococcus aureus [5]) was 128 µg/mL (≈ 136 µM), the MIC (Enterococcus faecium) was 64 µg/mL (≈ 68.2 µM) and the MIC (Enterococcus faecalis) was 32 µg/mL (≈ 34.1 µM). It also gave an MIC (Bacillus subtilis) of 32 µg/mL (≈ 34.1 µM).
In the case of `CC[C@H]1OC(=O)[C@H](C)[C@@H](OC(=O)NNC(=O)Cn2cc(-c3cccc(N)c3)nn2)[C@H](C)[C@@H](O[C@@H]2O[C@H](C)C[C@H](N(C)C)[C@H]2O)[C@](C)(O)C[C@@H](C)CN(C)[C@H](C)[C@H]2OC(=O)O[C@@]21C`, the MIC (Staphylococcus aureus [1]) is reported as > 256 µg/mL, the MIC (Klebsiella pneumoniae) is reported as 128 µg/mL (≈ 146 µM) and the MIC (Staphylococcus aureus [4]) is reported as 128 µg/mL (≈ 146 µM). For the same compound, the MIC (Staphylococcus aureus [5]) was > 256 µg/mL, the MIC (Enterococcus faecium) was 128 µg/mL (≈ 146 µM) and the MIC (Enterococcus faecalis) was > 128 µg/mL. For the same compound, the MIC (Bacillus subtilis) was > 128 µg/mL.
With `CC[C@H]1OC(=O)[C@H](C)[C@@H](OC(=O)NNC(=O)Cn2cc(-c3ccccc3)nn2)[C@H](C)[C@@H](O[C@@H]2O[C@H](C)C[C@H](N(C)C)[C@H]2O)[C@](C)(O)C[C@@H](C)CN(C)[C@H](C)[C@H]2OC(=O)O[C@@]21C` the MIC (Staphylococcus aureus [1]) was 256 µg/mL (≈ 298 µM), the MIC (Klebsiella pneumoniae) was 32 µg/mL (≈ 37.2 µM) and the MIC (Staphylococcus aureus [4]) was 32 µg/mL (≈ 37.2 µM). The MIC (Staphylococcus aureus [5]) was 256 µg/mL (≈ 298 µM), the MIC (Enterococcus faecium) was 64 µg/mL (≈ 74.4 µM) and the MIC (Enterococcus faecalis) was 16 µg/mL (≈ 18.6 µM). The MIC (Bacillus subtilis) was 128 µg/mL (≈ 149 µM).
`CCc1ccc(-c2cn(CC(=O)NNC(=O)O[C@H]3[C@H](C)[C@@H](O[C@@H]4O[C@H](C)C[C@H](N(C)C)[C@H]4O)[C@](C)(O)C[C@@H](C)CN(C)[C@H](C)[C@H]4OC(=O)O[C@]4(C)[C@@H](CC)OC(=O)[C@@H]3C)nn2)cc1` showed an MIC (Staphylococcus aureus [1]) of 64 µg/mL (≈ 72.1 µM), an MIC (Klebsiella pneumoniae) of 16 µg/mL (≈ 18 µM) and an MIC (Staphylococcus aureus [4]) of 16 µg/mL (≈ 18 µM). The MIC (Staphylococcus aureus [5]) was 64 µg/mL (≈ 72.1 µM), the MIC (Enterococcus faecium) was 32 µg/mL (≈ 36 µM) and the MIC (Enterococcus faecalis) was 32 µg/mL (≈ 36 µM). It also gave an MIC (Bacillus subtilis) of 32 µg/mL (≈ 36 µM).
With `CC[C@H]1OC(=O)[C@H](C)[C@@H](OC(=O)NNC(=O)Cn2cc(-c3ccccc3OC)nn2)[C@H](C)[C@@H](O[C@@H]2O[C@H](C)C[C@H](N(C)C)[C@H]2O)[C@](C)(O)C[C@@H](C)CN(C)[C@H](C)[C@H]2OC(=O)O[C@@]21C` the MIC (Staphylococcus aureus [1]) was 256 µg/mL (≈ 288 µM), the MIC (Klebsiella pneumoniae) was 64 µg/mL (≈ 71.9 µM) and the MIC (Staphylococcus aureus [4]) was 64 µg/mL (≈ 71.9 µM). For the same compound, the MIC (Staphylococcus aureus [5]) was 256 µg/mL (≈ 288 µM), the MIC (Enterococcus faecium) was 128 µg/mL (≈ 144 µM) and the MIC (Enterococcus faecalis) was 64 µg/mL (≈ 71.9 µM). The MIC (Bacillus subtilis) was 128 µg/mL (≈ 144 µM).
